Data reported in patent publication US10752900B2, “Oligonucleotides for modulating gene expression and uses thereof” (BIOGENERA S.P.A., priority 2012, dated 2020).

Tests used:
[1] = system: rabdomyosarcoma cells (RH30); assay: Cellular proliferation assay (ATP-Lite), RH30 cells; type: cell-based, human; settings: Table 6, PNA
Description: For the purpose of assessing the gene modulation ability of the oligonucleotides of the present invention, the effect of their administration on cell viability was determined. For this purpose 5×10^3 cells per well were seeded into 96-well cell culture plates (experiments conducted in triplicate) with 100 μl of OPTI-MEM (GIBCO BRL) medium containing 4% FBS and 2 mM of L-glutammine. The PNA oligonucleotides were administered at different concentrations (1 μM-2.5 μM-5 μM-10 μM) in order to observe a dose-effect relationship. As regards all the other oligonucleotides, the concentrations at which they administered are listed in the paragraph: The viability of the treated cells was determined at 48, 72, 96 and 168 hours after treatment. Cell viability was assessed by means of an ATP-Lite assay (Luminescence ATP Detection Assay System, PerkinElmer) and is reported as the ratio between the average signal of the treated wells compared to the average value of the wells of untreated control cells. The cells were processed following the instructions provided with the kit. The assays were performed on the same cell lines used to determine the levels of the MYCN gene messenger and listed in the paragraph: Treatments with Oligonucleotides-QT-PCR. The PNAs having SEQ ID NO: 1-12 were also tested on different cell lines which overexpress MYCN (Kelly, SKNBE2c, RH30, […] 1 and H69). The results are shown in Table 6 and confirm the selectivity and specificity of the inhibition effect of the PNAs on the product of protein translation of the MYCN gene. Chimeric oligonucleotides comprising DNA monomers and LNA monomers and having the MYCN gene as their target were tested in vitro on alveolar rabdomyosarcoma cells (RH30). […] The antisense oligonucleotides designed and synthesized by the Applicant according to the parameters described in the present invention were analyzed in vitro on rabdomyosarcoma cells (RH30).

NIH-3T3 = assay: Cellular proliferation, NIH-3T3 fibroblastoid-type cells; type: cell-based; settings: Table 1; cells that do not express MYCN
Description: (§1) Cell viability was assessed by means of an ATP-Lite assay (Luminescence ATP Detection Assay System, PerkinElmer) and is reported as the ratio between the average signal of the treated wells compared to the average value of the wells of untreated control cells. The cells were processed following the instructions provided with the kit.
(§2) Moreover, the oligonucleotides having SEQ ID NO 1-23 were administered in lines of fibroblastoid-type cells (NIH-3T3 and Phoenix) and the results are shown in Table 1 (last two columns). […]

MYCN gene = assay: QT-PCR, MYCN mRNA in RH30 cells; type: cell-based, human; settings: Table 6, PNA
Description: For the purpose of assessing the ability of the oligonucleotides of the present invention to modulate the expression of the target genes, their ability to reduce the quantity of messenger RNA was analyzed using the Real-Time PCR technique. For this purpose, use was made of 24-well plates, which were seeded with 5.0×10^4 cells with 0.3 ml of OPTI-MEM (GIBCO BRL) medium, 4% FBS and 2 mM L-glutammine (experiments in triplicate) per well. The cells were incubated for 24 hours at 37° C., in an atmosphere containing 5% CO2 to permit adherence to the base of the wells. Each oligonucleotide analyzed, except for the PNA oligonucleotides, was incubated beforehand with 2 μl of Lipofectamine 2000 (Invitrogen), with 0.3 mL of serum-free OPTI-MEM (GIBCO BRL) medium. For each well, the oligonucleotides were analyzed at the following final concentrations: • the antisense oligonucleotides siRNA and siRNA gapmer (i.e. the oligonucleotides containing one or more monomers of chemically modified nucleic acids at the 3' or 5' end, while in the central portion they have monomers of nucleic acids that have not been modified or have been modified at the level of the phosphodiester bond as a phosphorothioate bond) were used at 200 nM; • the antisense oligonucleotides containing phosphorothioate DNA monomers, the RNA antigene oligonucleotides (agRNA) and the oligonucleotides containing DNA monomers and LNA monomers were used at 10 μM; • the morpholino oligonucleotides were used at a concentration of 1 μM, and • the PNA oligonucleotides were administered at a concentration of 1 μM. The cells were treated with the oligonucleotides, adding FBS up to 4% 6 hours after administration of the same. After 24 hours the total RNA was extracted from each well and purified using the RNeasy Mini Kit (QIAGEN). Assays were performed on 8 cell lines obtained from 5 different human tumours which are correlated with MYCN expression, i.e.: • as a neuroblastoma model use was made of the cell lines Kelly, IMR-32 (where the MYCN gene is amplified and superexpressed) and SKNBE2c and LAN1 (where the MYCN gene is amplified and superexpressed and the p53 gene is mutated); • as a rabdomiosarcoma model use was made of the cell line RH30, where the MYCN gene is amplified and superexpressed; • as a Wilms' tumour model use was made of the cell line WiT49, where the MYCN gene is amplified and superexpressed; • as a retinoblastoma model use was made of the cell line Y79, where the MYCN gene is amplified and superexpressed; and • as a model of small cell lung cancer use was made of the cell line H69 where the MYCN gene is amplified and superexpressed. As a control, use was made of the same cell lines as listed above treated with sterile water instead of oligonucleotides. Each RNA sample was quantified (in duplicate) using a NanoDrop ND-1000 spectrophotometer (NanoDrop Technologies). The first strand of cDNA was produced using the cDNA Synthesis Kit for RT-PCR (Roche). For the cDNA synthesis reaction a total of 1 μg of RNA was used. For the real-time PCR, 10 ng of cDNA in a final volume of 20 μl was used with SYBR Green Master Mix 2× (Applied Biosystems) (3 identical experiments were conducted in triplicate). Two housekeeping genes were used as positive controls: GAPDH and beta-actin (ACTB). The conditions of the QT-PCR reaction were: 10 min at 95° C., 20 sec at 95° C., and 30 sec at 60° C., for 50 cycles. The PNAs having SEQ ID NO: 1-12 were also tested on different cell lines which overexpress MYCN (Kelly, SKNBE2c, RH30, […] 1 and H69). The results are shown in Table 6 and confirm the selectivity and specificity of the inhibition effect of the PNAs on the product of protein translation of the MYCN gene. Chimeric oligonucleotides comprising DNA monomers and LNA monomers and having the MYCN gene as their target were tested in vitro on alveolar rabdomyosarcoma cells (RH30). […]

Phoenix = assay: Cellular proliferation, Phoenix fibroblastoid-type cells; type: cell-based; settings: Table 1; cells that do not express MYCN
Description: as §1, §2

Substance | RH30 % cell prol. [1] [%] | NIH-3T3 prolif. (%) (NIH-3T3) | RH30 % mRNA (MYCN gene) [%] | Phoenix prolif. (%) (Phoenix)
SEQ ID NO: 2: PNA antigene oligonucleotide GGGTGGATGCGGGGGG directed against MYCN (PNA backbone, chemistry not fully specified) | 56 | 100 | 74 | 100
SEQ ID NO: 9: PNA antigene oligonucleotide CCCTGCAGTCGGCGGG directed against MYCN (all peptide nucleic acid (PNA)) | 71 | 100 | 50 | 100
SEQ ID NO: 7: PNA antigene oligonucleotide CGCGCTGGGTGGATGC directed against MYCN (all peptide nucleic acid (PNA)) | 63 | 100 | 55 | 100
SEQ ID NO: 10: PNA antigene oligonucleotide CGGCCGCGGGCCGCCA directed against MYCN (PNA backbone, chemistry not fully specified) | 80 | 100 | 29 | 100
SEQ ID NO: 1: PNA ATGCCGGGCATGATCT against MYCN; subject of patent EP 1618195, control sequence used for comparison (all peptide nucleic acid (PNA)) [reference compound] | 76 | 100 | 39 | 100
SEQ ID NO: 8: PNA antigene oligonucleotide GTCTGGACGCGCTGGG directed against MYCN (all peptide nucleic acid (PNA)) | 60 | 100 | 58 | 100
SEQ ID NO: 5: PNA antigene oligonucleotide GCTGGGTGGATGCGGG directed against MYCN (PNA backbone, chemistry not fully specified) | 64 | 100 | 56 | 100
SEQ ID NO: 11: PNA antigene oligonucleotide GGGAACTGTGTTGGAG directed against MYCN (PNA backbone, chemistry not fully specified) | 78 | 100 | 31 | 100
SEQ ID NO: 6: PNA antigene oligonucleotide TGGACGCGCTGGGTGG directed against MYCN (PNA backbone, chemistry not fully specified) | 64 | 100 | 56 | 100
SEQ ID NO: 12: PNA antigene oligonucleotide TGTCTGGACGCGCTGG directed against MYCN (all peptide nucleic acid (PNA)) | 77 | 100 | 32 | 100
SEQ ID NO: 3: PNA antigene oligonucleotide GATGCGGGGGGCTCCT directed against MYCN (PNA backbone, chemistry not fully specified) | 59 | 100 | 65 | 100
SEQ ID NO: 4: PNA antigene oligonucleotide GTCGGCGGGAGGTAAG directed against MYCN (PNA backbone, chemistry not fully specified) | 62 | 100 | 57 | 100
